For three compounds, EC50 results are on record in PMC9263442, “Discovery of Small Molecule KCC2 Potentiators Which Attenuate In Vitro Seizure-Like Activity in Cultured Neurons” (Frontiers in Cell and Developmental Biology, 2022).

The structures appear in SMILES notation.

What all share (format): cell-based
Test [1] has as its target T1, KCC2 (Rattus norvegicus, UniProt Q63633).
T1 construct: gene Slc12a5; KCC2b isoform expressed in T-REx-293 cells
T1 sequence (Q63633 43-1139 limits assumed): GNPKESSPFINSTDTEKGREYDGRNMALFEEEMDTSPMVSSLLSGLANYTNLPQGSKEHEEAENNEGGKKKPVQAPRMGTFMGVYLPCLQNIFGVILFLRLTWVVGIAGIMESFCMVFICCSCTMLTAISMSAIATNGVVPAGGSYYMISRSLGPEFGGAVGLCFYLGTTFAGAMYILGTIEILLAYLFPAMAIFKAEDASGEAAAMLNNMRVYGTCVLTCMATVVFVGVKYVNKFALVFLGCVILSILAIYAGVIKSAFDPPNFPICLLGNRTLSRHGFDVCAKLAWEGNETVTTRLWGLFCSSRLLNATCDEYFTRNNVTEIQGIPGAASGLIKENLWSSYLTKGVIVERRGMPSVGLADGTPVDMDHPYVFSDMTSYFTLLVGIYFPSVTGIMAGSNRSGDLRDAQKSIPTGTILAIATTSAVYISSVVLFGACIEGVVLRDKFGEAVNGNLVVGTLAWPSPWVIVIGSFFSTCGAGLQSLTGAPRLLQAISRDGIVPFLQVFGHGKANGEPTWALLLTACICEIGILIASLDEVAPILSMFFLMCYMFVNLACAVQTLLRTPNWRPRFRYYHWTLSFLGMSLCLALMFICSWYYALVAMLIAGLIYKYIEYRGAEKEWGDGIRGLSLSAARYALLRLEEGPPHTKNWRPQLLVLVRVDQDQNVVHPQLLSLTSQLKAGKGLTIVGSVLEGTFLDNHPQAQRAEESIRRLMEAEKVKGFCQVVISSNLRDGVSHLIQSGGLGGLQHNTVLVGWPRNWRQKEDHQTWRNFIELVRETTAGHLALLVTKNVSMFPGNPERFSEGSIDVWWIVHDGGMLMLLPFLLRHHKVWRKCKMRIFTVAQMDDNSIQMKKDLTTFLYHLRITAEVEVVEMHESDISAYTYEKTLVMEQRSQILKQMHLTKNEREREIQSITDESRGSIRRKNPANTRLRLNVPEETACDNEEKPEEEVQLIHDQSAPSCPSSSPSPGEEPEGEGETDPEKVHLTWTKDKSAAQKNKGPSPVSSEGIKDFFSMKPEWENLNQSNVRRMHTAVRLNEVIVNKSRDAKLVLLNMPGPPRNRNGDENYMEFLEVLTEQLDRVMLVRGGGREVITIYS
The test is described as follows: SuperClomeleon Cl- flux assay in HEK-293 with and without KCC2.

The target in test [2] is T1, KCC2. The test can be described thus: SuperClomeleon Cl- flux assay in HEK-293 with and without KCC2; Tl+ and […]+ influx.
Test [3] addresses T1, KCC2. The test is described as follows: SuperClomeleon Cl- flux assay in HEK-293 overexpressing KCC2.

The compound `Cc1cccc2sc(N(CCN(C)C)C(=O)CCCS(=O)(=O)c3ccccc3)nc12` [VU0500458, N-(2-(Dimethylamino)Ethyl)-N-(4-Methylbenzo[d]Thiazol-2-yl)-4-(Phenylsulfonyl)Butanamide] gave an EC50 on KCC2 [1] of 28.8 ± 4.2 µM.

On to `Cc1ccc(S(=O)(=O)CCCC(=O)N(CCN(C)C)c2nc3c(C)cccc3s2)cc1` [VU0500469, N-(2-(Dimethylamino)Ethyl)-N-(4-Methylbenzo[d]Thiazol-2-yl)-4-Tosylbutanamide], for which, at KCC2 [2], it took 14.2 ± 0.7 µM to reach a half-maximal effect (EC50).

For the compound `Cc1cccc2sc(N(CCN(C)C)C(=O)CCCS(=O)(=O)c3ccc(F)cc3)nc12` [VU0916219, N-(2-(Dimethylamino)Ethyl)-4-((4-Fluorophenyl)Sulfonyl)-N-(4-Methylbenzo[d]Thiazol-2-yl)Butanamide], the EC50 on KCC2 [3] stood at 17.1 ± 1.2 µM.
